From patent US20260041620A1, “NOVEL AMINO ACID BASED SALTS, COMPOSITIONS AND METHODS FOR TREATING SKIN AND IMPROVING SKIN REJUVENATION AND LONGEVITY” (Sytheon Ltd, priority 2023, published 2026)

What was measured:
Type I Collagen = Type I Collagen Assay (ELISA, fibroblast culture medium); assay type: cell-based, human; conditions: for Type I Collagen C-Peptide: 48 hours, untreated 1255 ± 83
Experimental: (§1) In the study, human neonatal fibroblasts were seeded into the individual wells of a 48-well plate in 0.25 ml of Fibroblasts Growth Media (FGM) and incubated overnight at 37±2° C. and a 5±1% CO2 atmosphere. On the following day the media was removed via aspiration to eliminate non-adherent cells and replaced with 0.5 ml of fresh FGM. The cells were grown until confluent, with a media change every 48 to 72 hours. Upon reaching confluency the cells were treated for 24 hours with Dulbecco's Modified Eagle's medium (DMED) supplemented with 1.5% Fetal Bovine Serum (FBS) to wash out any effects from the growth factors included in the normal culture media. After this 24-hour wash out period the cells were treated with the test materials at the specified concentrations dissolved in FGM with 1.5% FBS. Sodium ascorbate (10 ug/ml) was used as a positive control. Untreated cells (negative controls) only received DMEM with […], The cells were incubated for 48 hours and at the end of the incubation period, cell culture medium was collected and either stored frozen (−75 C) or assayed immediately. Materials were tested in triplicate.
A series of type I collagen peptide standards was prepared ranging from 0 ng/ml to 640 ng/ml. An ELISA microplate was prepared by removing any unneeded strips from the plate frame followed by the addition of 100 μl of peroxidase labelled anti-procollagen type I-C peptide antibody to each well used in the assay. A 20 μl sample of each of the collected tissue culture media or a standard was then added to appropriate wells and the microplate covered and allowed to incubate for 3±0.25 hours at 37 C. Following incubation, the wells were aspirated and washed three times with 400 μl of wash buffer. After the last wash was remove 100 μl of peroxidase substrate solution (hydrogen peroxide+tetramethylbenzidine as a chromogen) was added to each well and the plate incubated for 15±4 minutes at room temperature. Following this incubation, 100 μl of stop solution (1 N sulfuric acid) was added to each well and the plate read using a microplate reader at 450 nm.
(§2) To quantify the amount of each substance present, a standard curve was generated using known concentrations of each substance. A regression analysis was performed to establish the line that best fit those data points. Absorbance values for the test materials and untreated samples were used to estimate the amount of each substance present in each sample. Treatment means were compared using ANOVA, with an […] per treatment. Statistical significance was set at p≤0.05.

Type IV Collagen = Type IV Collagen Assay (ELISA, fibroblast culture medium); assay type: cell-based, human; conditions: for Type IV Collagen C-Peptide: 48 hours, untreated 7.76 ± 0.92
Experimental: as §1
A series of type IV collagen peptide standards was prepared ranging from 0 ng/ml to 640 ng/ml. 100 μl of each standard or of each of the collected tissue culture media were added to the wells of type IV collagen ELISA plates. The plates were then incubated at 37° C. for 1 hour. After incubation, the ELISA plates were then washed twice with wash buffer, followed by the addition of 100 μl of detection antibody solution. The ELISA plates were then incubated for 1 hour at 37° C. Following incubation, the ELISA plates were washed with wash solution followed by the addition of 100 μl HEP conjugate solution and incubated at 37° C. for 30 minutes. Following the latter incubation, the ELISA plates were again washed and 100 μl of the substrate solution was added to each well and the well plates incubated for 10-30 minutes at room temperature to allow the color generation reaction to occur. At the end of the color generation reaction 100 μl of stop solution (1 N sulfuric acid) was added to each well and the plates read at 460 nm using a plate reader.
as §2

Prolidase (PEPD) = assay: Prolidase Assay (ELISA); assay type: cell-based; conditions: for Prolidase: untreated 74 ± 3
Experimental: A series of standards was prepared and 50 μl aliquots of the standards and the test samples identified in Table 6 were added to wells of a prolidase ELISA plate, followed by the addition of 100 μl […] conjugated anti-prolidase antibody. The plate was then incubated at 37° C. for 1 hour, Following incubation, the ELISA plate was washed and 100 μl of substrate solution was added to each well and the well-plate incubated for 10-15 minutes at room temperature to allow the color generation reaction to occur. At the end of the color generation reaction, 50 μl of stop solution (1 N sulfuric acid) was added to each well and the plates read at 460 nm using a plate reader.
as §2

NFκB = assay: NF-κB luminance reporter assay, TNFα activated; assay type: cell-based, Murine
Excerpt: NFκB expression was quantified from the luminance signals released from cells treated with the test products and the control (untreated).

[1] = system: EpiDermFT (Mattek full thickness) dermal substitutes; conditions: versus control
Experimental: The experiments were performed using EpiDermFT (Mattek full thickness) dermal substitutes. Sequencing data was generated by Azenta Life Sciences (HiSeq 2×150 bp) and analyses performed using raw FastQ files provided by Azenta.

COX-2 = biological target: T1, COX-2 (Homo sapiens, UniProt P35354)
T1 sequence (P35354 18-604): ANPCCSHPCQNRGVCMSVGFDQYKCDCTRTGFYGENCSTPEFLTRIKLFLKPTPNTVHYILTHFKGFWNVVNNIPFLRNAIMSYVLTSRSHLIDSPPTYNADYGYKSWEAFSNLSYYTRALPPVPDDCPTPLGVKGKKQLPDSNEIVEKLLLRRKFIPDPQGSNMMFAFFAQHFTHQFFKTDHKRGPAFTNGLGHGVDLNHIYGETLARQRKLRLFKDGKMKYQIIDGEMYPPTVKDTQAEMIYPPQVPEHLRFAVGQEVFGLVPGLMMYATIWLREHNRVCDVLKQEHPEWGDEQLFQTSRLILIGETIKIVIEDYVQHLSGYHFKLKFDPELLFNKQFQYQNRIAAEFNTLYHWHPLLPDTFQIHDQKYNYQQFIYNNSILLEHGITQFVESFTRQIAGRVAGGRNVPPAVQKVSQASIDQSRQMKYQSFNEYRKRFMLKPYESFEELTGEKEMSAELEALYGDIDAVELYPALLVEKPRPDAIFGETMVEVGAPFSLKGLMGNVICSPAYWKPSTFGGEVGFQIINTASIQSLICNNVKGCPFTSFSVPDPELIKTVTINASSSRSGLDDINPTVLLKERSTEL
Experimental: A 0.1 gram sample of each test material was dissolved in 1 mL propanediol make a stock solution, each of which was subject to 1 to 2 serial dilutions using buffer for use in determining the IC50 Testing and analysis was performed in accordance with the protocol of the COX-2 Kt (Cayman Catalog #701080) (Cayman catalog #62160).

[2] = concentrations as high as 100 μg/ml

| Compound | Type I Collagen C-Peptide (Type I Collagen; 10 μg/ml) | Type I Collagen C-Peptide (Type I Collagen; 30 μg/ml) | Type IV Collagen C-Peptide (Type IV Collagen; 10 μg/ml) | Type IV Collagen C-Peptide (Type IV Collagen; 30 μg/ml) | Prolidase (Prolidase (PEPD); 10 μg/ml) | Prolidase (Prolidase (PEPD); 20 μg/ml) | Prolidase (Prolidase (PEPD); 30 μg/ml) | Prolidase (Prolidase (PEPD); 60 μg/ml) | expression of FABP3 [1] | expression of late differentiation marker gene FLG [1] | expression of late differentiation marker gene IVL [1] | expression of late differentiation marker gene LOR [1] | expression of late differentiation marker gene SPINK5 [1] | expression of late differentiation marker gene TGM1 [1] | COX-2 IC50 (COX-2) | further results |
| --- | --- | --- | --- | --- | --- | --- | --- | --- | --- | --- | --- | --- | --- | --- | --- | --- |
| CCCC(=O)NCCCC[C@H](NC(=O)CCC)C(=O)[O-].CCCC(=O)NCCCC[C@H](NC(=O)CCC)C(=O)[O-].[Zn+2] [Zn di-(di-n-butyryl lysinate), Zinc di-(di-n-butyryl lysinate)] | 1328 ± 48 ng/mL | 1958 ± 125 ng/mL | 13.41 ± 1.40 ng/mL | 26.98 ± 1.37 ng/mL | 66 ± 4 ng/mL | 104 ± 5 ng/mL | 115 ± 8 ng/mL | 145 ± 5 ng/mL | repressed | increased expression | increased expression | increased expression | increased expression | increased expression | 82.3 µg/mL | Type I Collagen C-Peptide (Type I Collagen; 20 μg/ml): 1541 ± 94 ng/mL; boost of Collagen I vs control (Type I Collagen; 30 μg/ml): ~50%; boosting of Collagen IV versus control (Type IV Collagen; 20 μg/ml): ~250%; Type IV Collagen C-Peptide (Type IV Collagen; 20 μg/ml): 21.19 ± 1.47 ng/mL; boosting of Collagen IV versus control (Type IV Collagen; 30 μg/ml): ~320%; increase of prolidase vs control (Prolidase (PEPD); 60 μg/ml): 50%; IC50 in inhibiting NFκB (NFκB; C2C12 reporter cells, TNFα as activator): 70.4 µg/mL; fold more effective than Na butyrate in inhibiting NFκB (NFκB; ratio of IC50 values): about 110 fold; activity of S100 calcium binding protein P (S100P) [1]: strongly increased; activity of late cornified envelope 3D (LCE3D) [1]: strongly increased; activity of late cornified envelope 3E (LCE3E) [1]: strongly increased; activity of small protein reach repeat (SPRR28) [1]: strongly increased; expression of early differentiation marker gene DSC1 [1]: increasing the expression; expression of early differentiation marker gene KRT1 [1]: increasing the expression; expression of early differentiation marker gene KRT10 [1]: increasing the expression |
| CCCC(=O)NCCCCC(NC(=O)CCC)C(=O)[O-].CCCC(=O)NCCCCC(NC(=O)CCC)C(=O)[O-].[Ca+2] (stereo not shown) [Ca di-(di-n-butyryl lysinate), calcium di-(di-n-butyryl lysinate)] |  |  |  |  |  |  |  |  | repressed | increased expression | increased expression | increased expression | increased expression | increased expression | 111.0 µg/mL | activity of late cornified envelop (LCE2D) [1]: strongly increased; activity of late cornified envelope (LCE3A) [1]: strongly increased |
| CCCC(=O)[O-].[Na+] [Sodium butyrate, reference compound] | 1445 ± 168 ng/mL | 1262 ± 95 ng/mL | 9.29 ± 0.70 ng/mL | 7.61 ± 0.70 ng/mL | 54 ± 3 ng/mL | 47 ± 6 ng/mL | 37 ± 5 ng/mL | 33 ± 5 ng/mL |  |  |  |  |  |  |  | Type I Collagen C-Peptide (Type I Collagen; 60 μg/ml): 1196 ± 175 ng/mL; Type I Collagen C-Peptide (Type I Collagen; 100 μg/ml): 1277 ± 216 ng/mL; Collagen I boosting activity (Type I Collagen; [2]): didn't show any; Type IV Collagen C-Peptide (Type IV Collagen; 60 μg/ml): 11.88 ± 1.37 ng/mL; Type IV Collagen C-Peptide (Type IV Collagen; 100 μg/ml): 12.80 ± 1.83 ng/mL; Collagen IV boosting activity (Type IV Collagen; [2]): didn't show any; decrease of prolidase vs control (Prolidase (PEPD); 60 μg/ml): 50%; IC50 (NFκB; Mus musculus, C2C12 reporter cells, TNFα as activator, read-out: IC50 in inhibiting NFκB): 7700 µg/mL |
